PubChem BioAssay (NCI)
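Grown in 96-well plates, cells were treated for 48 hours with each compound at five concentrations. Insufficient inhibition: endpoint recorded as highest concentration tested. GI50 = concentration required for 50% inhibition of growth. TGI: total growth inhibition.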

Key:
Assay in all cases: inhibition of tumour cell growth, NCI panel, 48 h
786-0 renal = tested on: 786-0 renal
A498 renal = tested on: A498 renal
A549 NSCLC = tested on: A549 NSCLC
ACHN renal = tested on: ACHN renal
BT-549 breast = tested on: BT-549 breast
CAKI-1 renal = tested on: CAKI-1 renal
CCRF-CEM leukemia = tested on: CCRF-CEM leukemia
COLO 205 colon = tested on: COLO 205 colon
DU-145 prostate = tested on: DU-145 prostate
EKVX NSCLC = tested on: EKVX NSCLC
HCC-2998 colon = tested on: HCC-2998 colon
HCT-116 colon = tested on: HCT-116 colon
HCT-15 colon = tested on: HCT-15 colon
HL-60(TB) leukemia = tested on: HL-60(TB) leukemia
HOP-62 NSCLC = tested on: HOP-62 NSCLC
HOP-92 NSCLC = tested on: HOP-92 NSCLC
HS 578T breast = tested on: HS 578T breast
HT29 colon = tested on: HT29 colon
IGROV1 ovarian = tested on: IGROV1 ovarian
K-562 leukemia = tested on: K-562 leukemia
KM12 colon = tested on: KM12 colon
LOX IMVI melanoma = tested on: LOX IMVI melanoma
M14 melanoma = tested on: M14 melanoma
MALME-3M melanoma = tested on: MALME-3M melanoma
MCF7 breast = tested on: MCF7 breast
MDA-MB-231 breast = tested on: MDA-MB-231 breast
MDA-MB-435 = tested on: MDA-MB-435
MOLT-4 leukemia = tested on: MOLT-4 leukemia
NCI-H226 lung = tested on: NCI-H226 lung
NCI-H23 lung = tested on: NCI-H23 lung
NCI-H460 lung = tested on: NCI-H460 lung
NCI-H522 lung = tested on: NCI-H522 lung
NCI/ADR-RES ovarian = tested on: NCI/ADR-RES ovarian
OVCAR-3 ovarian = tested on: OVCAR-3 ovarian
OVCAR-4 ovarian = tested on: OVCAR-4 ovarian
OVCAR-5 ovarian = tested on: OVCAR-5 ovarian
OVCAR-8 ovarian = tested on: OVCAR-8 ovarian
PC-3 prostate = tested on: PC-3 prostate
RPMI-8226 leukemia = tested on: RPMI-8226 leukemia
RXF 393 renal = tested on: RXF 393 renal
SF-268 CNS = tested on: SF-268 CNS
SF-295 CNS = tested on: SF-295 CNS
SF-539 CNS = tested on: SF-539 CNS
SK-MEL-2 melanoma = tested on: SK-MEL-2 melanoma
SK-MEL-28 melanoma = tested on: SK-MEL-28 melanoma
SK-MEL-5 melanoma = tested on: SK-MEL-5 melanoma
SK-OV-3 ovarian = tested on: SK-OV-3 ovarian
SN12C renal = tested on: SN12C renal
SNB-19 CNS = tested on: SNB-19 CNS
SNB-75 CNS = tested on: SNB-75 CNS
SR leukemia = tested on: SR leukemia
SW-620 colon = tested on: SW-620 colon
T-47D breast = tested on: T-47D breast
TK-10 renal = tested on: TK-10 renal
U251 CNS = tested on: U251 CNS
UACC-257 melanoma = tested on: UACC-257 melanoma
UACC-62 melanoma = tested on: UACC-62 melanoma
UO-31 renal = tested on: UO-31 renal

`CC1(C)[C@@H](OC(N)=O)[C@H]2O[C@H]2[C@]2(CO)[C@H]3CC[C@]4(C)[C@@H](c5ccc(=O)oc5)[C@@H](Cl)C[C@]4(O)C3=CC[C@@H]12` was tested, and the GI50 (786-0 renal) was 5.2 nM, the TGI (786-0 renal) was 13.6 nM and the GI50 (A498 renal) was 14.4 nM. For the same compound, the TGI (A498 renal) was 74.8 nM, the GI50 (A549 NSCLC) was 4.69 nM and the TGI (A549 NSCLC) was 8.8 nM. The GI50 (ACHN renal) was 5.15 nM, the TGI (ACHN renal) was 11.8 nM and the GI50 (BT-549 breast) was 6.95 nM. It also gave a TGI (BT-549 breast) of 25.7 nM, a GI50 (CAKI-1 renal) of 5.21 nM and a TGI (CAKI-1 renal) of 13.2 nM. The GI50 (CCRF-CEM leukemia) was 7.68 nM, the TGI (CCRF-CEM leukemia) was 26.4 nM and the GI50 (COLO 205 colon) was 10.9 nM. The TGI (COLO 205 colon) was 50.6 nM, the GI50 (DU-145 prostate) was 5.09 nM and the TGI (DU-145 prostate) was 10.6 nM. The GI50 (EKVX NSCLC) was 5.34 nM, the TGI (EKVX NSCLC) was < 13.8 nM and the GI50 (HCC-2998 colon) was 15.1 nM. It also gave a TGI (HCC-2998 colon) of 107 nM, a GI50 (HCT-116 colon) of 7.09 nM and a TGI (HCT-116 colon) of 26.2 nM. The GI50 (HCT-15 colon) was 7.98 nM, the TGI (HCT-15 colon) was 30.4 nM and the GI50 (HL-60(TB) leukemia) was 6.09 nM. For the same compound, the TGI (HL-60(TB) leukemia) was 14 nM, the GI50 (HOP-62 NSCLC) was 4.32 nM and the TGI (HOP-62 NSCLC) was 8.47 nM. For the same compound, the GI50 (HOP-92 NSCLC) was 12.7 nM, the TGI (HOP-92 NSCLC) was 92.1 nM and the GI50 (HS 578T breast) was 5.24 nM. It also gave a TGI (HS 578T breast) of 20.7 nM, a GI50 (HT29 colon) of 7.96 nM and a TGI (HT29 colon) of 23.8 nM. The GI50 (IGROV1 ovarian) was 11.6 nM, the TGI (IGROV1 ovarian) was 93.8 nM and the GI50 (K-562 leukemia) was 9.78 nM. For the same compound, the TGI (K-562 leukemia) was 54.7 nM, the GI50 (KM12 colon) was 10.7 nM and the TGI (KM12 colon) was 44.5 nM. It also gave a GI50 (LOX IMVI melanoma) of 5.95 nM, a TGI (LOX IMVI melanoma) of 15.7 nM and a GI50 (M14 melanoma) of 16.1 nM. For the same compound, the TGI (M14 melanoma) was 55.8 nM, the GI50 (MALME-3M melanoma) was 6.16 nM and the TGI (MALME-3M melanoma) was 14.9 nM. For the same compound, the GI50 (MCF7 breast) was 7.45 nM, the TGI (MCF7 breast) was 51.2 nM and the GI50 (MDA-MB-231 breast) was 28.3 nM. For the same compound, the TGI (MDA-MB-231 breast) was 103 nM, the GI50 (MDA-MB-435) was 10.1 nM and the TGI (MDA-MB-435) was 38.6 nM. For the same compound, the GI50 (MOLT-4 leukemia) was 5.19 nM, the TGI (MOLT-4 leukemia) was 14.4 nM and the GI50 (NCI-H226 lung) was 6.1 nM. It also gave a TGI (NCI-H226 lung) of 15.2 nM, a GI50 (NCI-H23 lung) of 5.52 nM and a TGI (NCI-H23 lung) of 15.2 nM. The GI50 (NCI-H460 lung) was 4.68 nM, the TGI (NCI-H460 lung) was 9.97 nM and the GI50 (NCI-H522 lung) was 4.55 nM. The TGI (NCI-H522 lung) was 14.7 nM, the GI50 (NCI/ADR-RES ovarian) was 6.72 nM and the TGI (NCI/ADR-RES ovarian) was 17.4 nM. The GI50 (OVCAR-3 ovarian) was 6.18 nM, the TGI (OVCAR-3 ovarian) was 14 nM and the GI50 (OVCAR-4 ovarian) was 5.45 nM. The TGI (OVCAR-4 ovarian) was 15.7 nM, the GI50 (OVCAR-5 ovarian) was 8.21 nM and the TGI (OVCAR-5 ovarian) was 34.2 nM. For the same compound, the GI50 (OVCAR-8 ovarian) was 8.63 nM, the TGI (OVCAR-8 ovarian) was 29.7 nM and the GI50 (PC-3 prostate) was 8.03 nM. The TGI (PC-3 prostate) was 27.5 nM, the GI50 (RPMI-8226 leukemia) was < 11 nM and the TGI (RPMI-8226 leukemia) was 126 nM. It also gave a GI50 (RXF 393 renal) of 7.16 nM, a TGI (RXF 393 renal) of 82.9 nM and a GI50 (SF-268 CNS) of 4.57 nM. The TGI (SF-268 CNS) was 8.92 nM, the GI50 (SF-295 CNS) was 7.2 nM and the TGI (SF-295 CNS) was 26.4 nM. The GI50 (SF-539 CNS) was 4.53 nM, the TGI (SF-539 CNS) was 9.51 nM and the GI50 (SK-MEL-2 melanoma) was 8.18 nM. The TGI (SK-MEL-2 melanoma) was 33 nM, the GI50 (SK-MEL-28 melanoma) was 16 nM and the TGI (SK-MEL-28 melanoma) was 90.2 nM. For the same compound, the GI50 (SK-MEL-5 melanoma) was 6.81 nM, the TGI (SK-MEL-5 melanoma) was 19.5 nM and the GI50 (SK-OV-3 ovarian) was 6.61 nM. The TGI (SK-OV-3 ovarian) was 18 nM, the GI50 (SN12C renal) was 7.66 nM and the TGI (SN12C renal) was 32.5 nM. The GI50 (SNB-19 CNS) was 16.1 nM, the TGI (SNB-19 CNS) was 50.9 nM and the GI50 (SNB-75 CNS) was 4.67 nM. For the same compound, the TGI (SNB-75 CNS) was 13.8 nM, the GI50 (SR leukemia) was 6.81 nM and the TGI (SR leukemia) was 19.5 nM. For the same compound, the GI50 (SW-620 colon) was 8.35 nM, the TGI (SW-620 colon) was 27.9 nM and the GI50 (T-47D breast) was 7.6 nM. The TGI (T-47D breast) was 33.3 nM, the GI50 (TK-10 renal) was 5.55 nM and the TGI (TK-10 renal) was 15 nM. For the same compound, the GI50 (U251 CNS) was 8.58 nM, the TGI (U251 CNS) was 29.7 nM and the GI50 (UACC-257 melanoma) was 12 nM. For the same compound, the TGI (UACC-257 melanoma) was 45 nM, the GI50 (UACC-62 melanoma) was 8.92 nM and the TGI (UACC-62 melanoma) was 33.2 nM. For the same compound, the GI50 (UO-31 renal) was 6.45 nM and the TGI (UO-31 renal) was 22.8 nM.
